Patent US10952433B2, “Solutions for enhancing the effectiveness of insecticides and fungicides on living plants and related methods” (priority 2015, dated 2021)

Columns and labels:
[1] = test system: staining fungi (macerated fungal blend); assay: Staining fungi coverage in inoculated stem wound of red oak seedlings, greenhouse (Table 6)
Description: In performing the tests employing ten red oak seedlings per iteration with the materials being tested applied at approximately 12 milliliters per seeding applied with a low volume hand spray. […] Seven days after application, a sterile razor blade wound of approximately 2 millimeters by 10 millimeters was created on each seedling stem. Immediately after, the wounding 1 ml of macerated fungal blend suspended in distilled water was applied to each stem wound. Twenty-eight days after wounding, the wounds were evaluated for an average percentage of staining fungi present in each seedling stem wound. Opaque black straw covering was applied to each wound. The opaque black straws were applied within about one minute after wounding and inoculation with the fungi. […] The purpose for using such straws is to facilitate the creation of a dark environment on the wound as fungi tend to like dark damp places. This is employed to enhance the effectiveness of the test by accelerating the severity of the fungal growing conditions. Each stem wound was given two ml of distilled water 10, 17, 21 and 28 days after wounding by a low volume trigger spray. All solutions were included a propylene glycol based dye at a concentration of 100:1. The greenhouse conditions were maintained at 65° F. to 85° F. and the humidity range of 30 to 80% relative humidity. The test which employed the combination of thiabendazole, fludioxonil and azoxystrobin was obtained as a formulated pesticide product which was available under the trade designation “Sporgard”.
The final column is a numerical grade which represents the percent of staining fungi coverage in percentage in the stem wound of the red oak seedlings as measured on day 28.

[2] = test system: staining fungi of the ceratocystis variety; assay: Staining fungi in stem wound of white oak seedlings after trunk spray (Table 4); format: in vivo, ceratocystis (on white oak seedlings)
Description: Fourteen days after the stem wounding, wounds were examined for the presence of staining fungi. In creating these for solution were used the buffer and amine oxides were added to the dilute solution of fungicide.
Referring to TABLE 4 wherein a commonly used fungicide, Propiconazole was employed in tests in the amount of 50:200 PPM (parts per million) employed with and without buffered amine oxides systems 3 and 4 with some of the tests employing the 12 carbon length and others, the 1218 carbon mixture. In a preferred embodiment in 1218 on a weight basis, the 12 carbon length will be present in an amount of about 1.3 to 2.0 times the amount of 18 carbon length and in the preferred range about 1.5 to 1.8 times the amount of 18 carbon length. The tests were performed on white oak seedlings which were provided with a stem wound in which was introduced staining fungi which was of the ceratocystis variety.
The method of testing the materials was to spray the trunk of the seedling with the particular solution being tested and 7 days after such application, creating a wound of approximately 2 millimeters by 10 millimeters on each seedling stem. Fourteen days after the wounding, the wounds were examined for the presence of staining fungi.

[3] = fungicide + Amine Oxide 12 (No Buffer) 200:1, PPM: Thiabendazole/Fludioxonil/Azoxystrobin 160, Chlorothalonil 1235, Propiconazole 102, Mancozeb 1097, Vinclozolin 122, Mefenoxam 20
[4] = fungicide + Amine Oxide 1218 (No Buffer) 200:1, PPM: Thiabendazole/Fludioxonil/Azoxystrobin 160, Chlorothalonil 1235, Propiconazole 103, Mancozeb 1097, Vinclozolin 122, Mefenoxam 20
[5] = fungicide + Buffer System 3 200:1, no amine oxide, PPM: Thiabendazole/Fludioxonil/Azoxystrobin 160, Chlorothalonil 1235, Propiconazole 101, Mancozeb 1097, Vinclozolin 122, Mefenoxam 20
[6] = fungicide + buffered amine oxide, Buffer System 3, amine oxide 12, 200:1, PPM: Thiabendazole/Fludioxonil/Azoxystrobin 160, Chlorothalonil 1235, Propiconazole 105, Mancozeb 1097, Vinclozolin 122, Mefenoxam 20
[7] = fungicide + buffered amine oxide, Buffer System 3, amine oxide 1218, 200:1, PPM: Thiabendazole/Fludioxonil/Azoxystrobin 160, Chlorothalonil 1235, Propiconazole 107, Mancozeb 1097, Vinclozolin 122, Mefenoxam 20
[8] = fungicide alone, highest amount, PPM: Thiabendazole/Fludioxonil/Azoxystrobin 640, Chlorothalonil 4940, Propiconazole 400, Mancozeb 4388, Vinclozolin 488, Mefenoxam 80
[9] = fungicide alone, increased amount, PPM: Thiabendazole/Fludioxonil/Azoxystrobin 320, Chlorothalonil 2470, Propiconazole 200, Mancozeb 2194, Vinclozolin 244, Mefenoxam 40
[10] = fungicide alone, PPM: Thiabendazole/Fludioxonil/Azoxystrobin 160, Chlorothalonil 1235, Propiconazole 100, Mancozeb 1097, Vinclozolin 122, Mefenoxam 20

Compound	Percent of Staining Fungi Coverage Average (%) in Stem Wound of Red Oak Seedlings (Day 28) [1, 3] [%]	Percent of Staining Fungi Coverage Average (%) in Stem Wound of Red Oak Seedlings (Day 28) [1, 4] [%]	Percent of Staining Fungi Coverage Average (%) in Stem Wound of Red Oak Seedlings (Day 28) [1, 5] [%]	Percent of Staining Fungi Coverage Average (%) in Stem Wound of Red Oak Seedlings (Day 28) [1, 6] [%]	Percent of Staining Fungi Coverage Average (%) in Stem Wound of Red Oak Seedlings (Day 28) [1, 7] [%]	Percent of Staining Fungi Coverage Average (%) in Stem Wound of Red Oak Seedlings (Day 28) [1, 8] [%]	Percent of Staining Fungi Coverage Average (%) in Stem Wound of Red Oak Seedlings (Day 28) [1, 9] [%]	Percent of Staining Fungi Coverage Average (%) in Stem Wound of Red Oak Seedlings (Day 28) [1, 10] [%]	Percent of Seedlings with Staining Fungi in Stem Wound of White Oak ([2]; Propiconazole 50 PPM + buffered amine oxide system 3, amine oxide 12, 200:1) [%]	Percent of Seedlings with Staining Fungi in Stem Wound of White Oak ([2]; Propiconazole 50 PPM + buffered amine oxide system 3, amine oxide 12, 400:1) [%]	Percent of Seedlings with Staining Fungi in Stem Wound of White Oak ([2]; Propiconazole 50 PPM + buffered amine oxide system 3, amine oxide 1218, 200:1) [%]	Percent of Seedlings with Staining Fungi in Stem Wound of White Oak ([2]; Propiconazole 50 PPM + buffered amine oxide system 3, amine oxide 1218, 400:1) [%]	Percent of Seedlings with Staining Fungi in Stem Wound of White Oak ([2]; Propiconazole 50 PPM + buffered amine oxide system 4, amine oxide 12, 200:1) [%]	Percent of Seedlings with Staining Fungi in Stem Wound of White Oak ([2]; Propiconazole 50 PPM + buffered amine oxide system 4, amine oxide 12, 400:1) [%]	Percent of Seedlings with Staining Fungi in Stem Wound of White Oak ([2]; Propiconazole 50 PPM + buffered amine oxide system 4, amine oxide 1218, 200:1) [%]	Percent of Seedlings with Staining Fungi in Stem Wound of White Oak ([2]; Propiconazole 50 PPM + buffered amine oxide system 4, amine oxide 1218, 400:1) [%]	Percent of Seedlings with Staining Fungi in Stem Wound of White Oak ([2]; Propiconazole 50 PPM alone, 14 days after wounding) [%]	Percent of Seedlings with Staining Fungi in Stem Wound of White Oak ([2]; Propiconazole 100 PPM alone, 14 days after wounding) [%]	Percent of Seedlings with Staining Fungi in Stem Wound of White Oak ([2]; Propiconazole 200 PPM alone, 14 days after wounding) [%]
N#Cc1c(Cl)c(Cl)c(Cl)c(C#N)c1Cl [Chlorothalonil]	64	55	72	27	33	37	49	91											
CCCC1COC(Cn2cncn2)(c2ccc(Cl)cc2Cl)O1 (stereo not drawn) [Propiconazole]	43	55	74	20	44	33	81	85	0	20	0	0	0	20	0	0	100	80	20
C=CC1(C)OC(=O)N(c2cc(Cl)cc(Cl)c2)C1=O (stereo not drawn) [Vinclozolin]	32	16	49	17	38	15	21	43											
COCC(=O)N(c1c(C)cccc1C)[C@H](C)C(=O)OC [Mefenoxam]	38	25	52	16	21	23	42	64											
Mancozeb	58	30	67	24	30	22	35	74											
